# According to US6395735B2, “Pharmaceutical compounds” (Eli Lilly and Company, priority 1997, dated 2002):
# Molecular target: T1, human m4 receptors (Homo sapiens, UniProt P08173)
# T1 construct: expressed in transfected cells; host or cells: CHO K1 cells
# Experiment: Stimulation of cyclic AMP production in pertussis toxin-treated CHO-m4 cells
# Format: cell-based
# Conditions: forskolin present
# Protocol: Cyclic AMP Accumulation in Pertussis Toxin-Treated CHO m4 Cells. CHO K1 cells transfected with human m4 receptors were grown to near confluency in T-150 flasks using Dulbecco's Modified Eagle Medium (DMEM) containing 10% fetal bovine serum. Cells were detached with 0.05% trypsin, 0.53 mM EDTA, and were suspended in medium containing 100 ng/ml pertussis toxin. Cells were plated at 30,000 cells per well into 96 well plates. Eighteen to twenty hours later the medium was removed and the cells were washed with serum-bee medium. Attached cells were incubated at 37 C for one hour after addition of […] of serum free DMEM containing 1 mM 3-isobutyl-1-methylxanthine and 1 mM forskolin plus or minus drugs being tested. Incubations were terminated with […] per well of serum free DMEM containing 0.3% triton-X-100. After stopping incubations the plates were allowed to sit for 20 minutes to extract cAMP and samples were then diluted 2.5-fold and were assayed using the scintillation proximity assay of Amersham (Arlington Heights, Ill.).
# Representative results from the M4 assay are as follows
# Stimulation of cyclic AMP production in CHO-m4 cells.
# T1 sequence (P08173 whole entry): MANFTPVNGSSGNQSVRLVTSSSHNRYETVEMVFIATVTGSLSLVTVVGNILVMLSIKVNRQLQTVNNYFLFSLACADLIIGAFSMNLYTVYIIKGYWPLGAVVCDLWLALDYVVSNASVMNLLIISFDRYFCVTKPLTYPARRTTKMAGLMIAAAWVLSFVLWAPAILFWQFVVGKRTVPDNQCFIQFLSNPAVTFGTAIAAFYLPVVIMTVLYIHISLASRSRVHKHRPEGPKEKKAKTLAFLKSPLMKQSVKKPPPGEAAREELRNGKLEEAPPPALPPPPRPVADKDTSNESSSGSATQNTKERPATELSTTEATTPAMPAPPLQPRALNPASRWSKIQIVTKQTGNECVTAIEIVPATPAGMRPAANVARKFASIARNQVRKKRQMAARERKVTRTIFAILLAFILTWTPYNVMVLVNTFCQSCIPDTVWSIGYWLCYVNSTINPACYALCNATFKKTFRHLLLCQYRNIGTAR
row,SMILES,% Maximum Stimulation Compared to Oxotremorine-M [%]
1,CCc1ccc(C(=O)N[C@@H]2c3cc(N=CN(C)C)ccc3C[C@H]2O)cc1 [Compound 67],7
2,CN(C)C=Nc1ccc2c(c1)[C@@H](NC(=O)c1cc(Cl)cc(Cl)c1)[C@H](O)C2 [Compound 58],74
3,O=C(NC1c2cc(N=CN3CCCC3)ccc2CC1O)c1cc(F)cc(F)c1 (stereo not drawn) [Compound 23],<20
4,CC(=Nc1ccc2c(c1)[C@@H](NC(=O)c1ccc(Cl)c(Cl)c1)[C@H](O)C2)N(C)C [Compound 76],130
5,O=C(NC1c2cc(N=CN3CCCC3)ccc2CC1O)C1CCCCC1 (stereo not drawn) [Compound 11],34
6,O=C(NC1c2cc(N=CN3CCCC3)ccc2CC1O)c1cc(F)c(F)c(F)c1 (stereo not drawn) [Compound 39],43
7,CN(C)C=Nc1ccc2c(c1)[C@@H](NC(=O)c1cc(F)c(F)c(F)c1)[C@H](O)C2 [Compound 65],30
8,O=C(NC1c2cc(N=CN3CCCC3)ccc2CC1O)c1cccc([N+](=O)[O-])c1 (stereo not drawn) [Compound 25],43
9,O=C(CSc1ccccc1)NC1c2cc(N=CN3CCCC3)ccc2CC1O (stereo not drawn) [Compound 28],<20
10,Cc1cc(C)c(C(=O)NC2c3cc(N=CN4CCCC4)ccc3CC2O)c(C)c1 (stereo not drawn) [Compound 27],<20
11,CN(C)C=Nc1ccc2c(c1)[C@@H](NC(=O)c1cccc(C#N)c1)[C@H](O)C2 [Compound 61],39
12,Cc1cccc(C(=O)NC2c3cc(N=CN4CCCC4)ccc3CC2O)c1 (stereo not drawn) [Compound 37],76
13,O=C(NC1c2cc(N=CN3CCCC3)ccc2CC1O)c1cccc(F)c1F (stereo not drawn) [Compound 24],22
14,O=C(N[C@@H]1c2cc(N=CN3CCCCC3)ccc2C[C@H]1O)c1cc(F)cc(F)c1 [Compound 98],73
15,CN(C)C=Nc1ccc2c(c1)[C@@H](NC(=O)c1ccc3ccccc3c1)[C@H](O)C2 [Compound 63],13
16,CN(C)C=Nc1ccc2c(c1)[C@@H](NC(=O)c1ccccc1)[C@H](O)C2 [Compound 57],5
17,O=C(NC1c2cc(N=CN3CCCC3)ccc2CC1O)c1ccccc1Cl (stereo not drawn) [Compound 44],41
18,O=C(N[C@@H]1c2cc(N=CN3CCCC3)ccc2C[C@H]1O)c1c(Cl)cc(Cl)cc1Cl [Compound 47],<20
19,O=C(NC1c2cc(N=CN3CCCC3)ccc2CC1O)c1cc(Cl)cc(Cl)c1 (stereo not drawn) [Compound 14],100

row,SMILES,% Maximum Stimulation Compared to Oxotremorine-M [%]
1,COc1cc(OC)cc(C(=O)NC2c3cc(N=CN4CCCC4)ccc3CC2O)c1 (stereo not drawn) [Compound 36],<20
2,N#Cc1cccc(C(=O)NC2c3cc(N=CN4CCCC4)ccc3CC2O)c1 (stereo not drawn) [Compound 38],<20
3,O=C(NC1c2cc(N=CN3CCCC3)ccc2CC1O)c1ccc2ccccc2c1 (stereo not drawn) [Compound 17],56
4,O=C(NC1c2cc(N=CN3CCCC3)ccc2CC1O)c1cccc2ccccc12 (stereo not drawn) [Compound 15],76
5,O=C(NC1c2cc(N=CN3CCCC3)ccc2CC1O)c1ccc(F)c(F)c1F (stereo not drawn) [Compound 33],45
6,O=C(NC1c2cc(N=CN3CCCC3)ccc2CC1O)c1ccc(C(F)(F)F)cc1 (stereo not drawn) [Compound 18],61
7,CN(C)C=Nc1ccc2c(c1)[C@@H](NC(=O)c1cc(F)cc(C(F)(F)F)c1)[C@H](O)C2 [Compound 64],52
8,O=C(NC1c2cc(N=CN3CCCC3)ccc2CC1O)c1cccc(Cl)c1Cl (stereo not drawn) [Compound 31],45
9,O=C(NC1c2cc(N=CN3CCCC3)ccc2CC1O)c1ccccc1C(F)(F)F (stereo not drawn) [Compound 35],65
10,CCCCc1ccc(C(=O)N[C@@H]2c3cc(N=CN(C)C)ccc3C[C@H]2O)cc1 [Compound 70],18
11,COc1cccc(C(=O)NC2c3cc(N=CN4CCCC4)ccc3CC2O)c1 (stereo not drawn) [Compound 34],45
12,O=C(NC1c2cc(N=CN3CCCC3)ccc2CC1O)c1cccc(F)c1 (stereo not drawn) [Compound 30],<20
13,CN(C)C=Nc1ccc2c(c1)[C@@H](NC(=O)C1CCCC1)[C@H](O)C2 [Compound 62],27
14,N#Cc1ccc(C(=O)NC2c3cc(N=CN4CCCC4)ccc3CC2O)cc1 (stereo not drawn) [Compound 13],<20
15,CCCCOc1ccc(C(=O)N[C@@H]2c3cc(N=CN(C)C)ccc3C[C@H]2O)cc1 [Compound 59],22
16,O=C(N[C@@H]1c2cc(N=CN3CCCCC3)ccc2C[C@H]1O)c1cc(Cl)cc(Cl)c1 [Compound 97],36
17,CN(C)C=Nc1ccc2c(c1)[C@@H](NC(=O)c1cc3ccccc3s1)[C@H](O)C2 [Compound 69],14
18,O=C(N[C@@H]1c2cc(N=CN3CCCCC3)ccc2C[C@H]1O)c1cccc(Cl)c1Cl [Compound 88],52
19,O=C(NC1c2cc(N=CN3CCCC3)ccc2CC1O)C1CCC1 (stereo not drawn) [Compound 41],<20

row,SMILES,% Maximum Stimulation Compared to Oxotremorine-M [%]
1,CCCCc1ccc(C(=O)N[C@@H]2c3cc(N=CN4CCCC4)ccc3C[C@H]2O)cc1 [Compound 45],<20
2,CN(C)C=Nc1ccc2c(c1)[C@@H](NC(=O)c1cc(C(F)(F)F)cc(C(F)(F)F)c1)[C@H](O)C2 [Compound 60],100
3,CN(C)C=Nc1ccc2c(c1)[C@@H](NC(=O)c1sccc1Cl)[C@H](O)C2 [Compound 68],0
4,O=C(NC1c2cc(N=CN3CCCC3)ccc2CC1O)C(F)(F)F (stereo not drawn) [Compound 19],<20
5,CN(C)C=Nc1ccc2c(c1)[C@@H](NC(=O)c1cccc3ccccc13)[C@H](O)C2 [Compound 71],95
6,O=C(NC1c2cc(N=CN3CCCC3)ccc2CC1O)c1ccc([N+](=O)[O-])cc1Cl (stereo not drawn) [Compound 20],69
7,CN(C)C=Nc1ccc2c(c1)[C@@H](NS(=O)(=O)c1ccc(Cl)c(Cl)c1)[C@H](O)C2 [Compound 72],4
8,O=C(NC1c2cc(N=CN3CCCC3)ccc2CC1O)c1c(F)ccc(F)c1F (stereo not drawn) [Compound 29],<20
9,O=C(NC1c2cc(N=CN3CCCC3)ccc2CC1O)c1cc(F)ccc1F (stereo not drawn) [Compound 32],<20
10,CN(C)C=Nc1ccc2c(c1)[C@@H](NC(=O)c1ccc(Cl)nc1)[C@H](O)C2 [Compound 74],8
11,O=C(NC1c2cc(N=CN3CCCC3)ccc2CC1O)c1cc(F)c(F)c(F)c1F (stereo not drawn) [Compound 40],96
12,CN(C)C=Nc1ccc2c(c1)[C@@H](NC(=O)c1cccnc1Cl)[C@H](O)C2 [Compound 73],11
13,O=C(NC1c2cc(N=CN3CCCC3)ccc2CC1O)c1cccnc1Cl (stereo not drawn) [Compound 12],26
14,CN(C)C=Nc1ccc2c(c1)[C@@H](NC(=O)c1ccc(C(F)(F)F)cc1)[C@H](O)C2 [Compound 75],6
15,O=C(NC1c2cc(N=CN3CCCC3)ccc2CC1O)c1cccs1 (stereo not drawn) [Compound 21],23
16,CCCc1ccc(C(=O)NC2c3cc(N=CN4CCCC4)ccc3CC2O)cc1 (stereo not drawn) [Compound 26],<20
17,CN(C)C=Nc1ccc2c(c1)[C@@H](NC(=O)C(F)(F)F)[C@H](O)C2 [Compound 66],0
18,O=C(N[C@@H]1c2cc(N=CN3CCCCC3)ccc2C[C@H]1O)c1ccc(Cl)c(Cl)c1 [Compound 77],214
19,O=C(N[C@@H]1c2cc(N=CN3CCCC3)ccc2C[C@H]1O)c1c(Cl)cccc1Cl [Compound 46],154

# Molecular target: T2, A9L-m1 (Homo sapiens, UniProt P11229)
# T2 sequence (P11229 1-460): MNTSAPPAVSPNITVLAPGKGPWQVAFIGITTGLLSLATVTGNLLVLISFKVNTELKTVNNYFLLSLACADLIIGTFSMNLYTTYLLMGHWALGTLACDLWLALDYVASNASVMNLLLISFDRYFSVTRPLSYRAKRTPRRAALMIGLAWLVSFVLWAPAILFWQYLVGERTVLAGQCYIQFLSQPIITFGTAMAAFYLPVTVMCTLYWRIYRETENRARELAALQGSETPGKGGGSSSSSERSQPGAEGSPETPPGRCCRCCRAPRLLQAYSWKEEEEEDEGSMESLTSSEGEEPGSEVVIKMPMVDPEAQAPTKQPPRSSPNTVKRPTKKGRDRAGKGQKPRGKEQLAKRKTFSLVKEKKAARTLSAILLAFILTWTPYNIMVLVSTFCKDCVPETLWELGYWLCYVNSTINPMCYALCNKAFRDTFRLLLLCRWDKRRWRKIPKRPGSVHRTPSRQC
# Experiment: m1 secondary assay: PI stimulation in A9L-m1
# Format: cell-based
# Conditions: A9L-m1, relative to carbachol; read-out: Pl stim. A9L-m1 % Max of carbachol
row,SMILES,Emax [%]
1,O=C(NC1c2cc(/N=C/N3CCCC3)ccc2C[C@@H]1O)c1ccc(F)c(Cl)c1 (stereo partly drawn) [Compound 133],40
2,Cc1cc(C(=O)NC2c3cc(/N=C/N4CCCC4)ccc3C[C@@H]2O)ccc1Br (stereo partly drawn) [Compound 129],42
3,O=C(NC1c2cc(/N=C/N3CCCC3)ccc2C[C@@H]1O)c1ccc(F)c(Br)c1 (stereo partly drawn) [Compound 131],70.5

# Same assay, conditions: A9L-m1; read-out: ED-50 Pl stim A9L-m1, nm
row,SMILES,EC50 [nM]
1,O=C(NC1c2cc(/N=C/N3CCCC3)ccc2C[C@@H]1O)c1ccc(F)c(Cl)c1 (stereo partly drawn) [Compound 133],190
2,Cc1cc(C(=O)NC2c3cc(/N=C/N4CCCC4)ccc3C[C@@H]2O)ccc1Br (stereo partly drawn) [Compound 129],41.3
3,O=C(NC1c2cc(/N=C/N3CCCC3)ccc2C[C@@H]1O)c1ccc(F)c(Br)c1 (stereo partly drawn) [Compound 131],43.6
